Assay results published in ChEMBL document CHEMBL2413072, “Synthesis and in vitro anticancer studies of novel C-2 arylidene congeners of lantadenes” (2013).

Columns and labels:
Format in all cases: functional
NCI-H322M = test: Growth inhibition of human NCI-H322M cells assessed as cell growth at 10 uM by sulforhodamine B assay; conditions: read-out: Activity
HOP-62 = test: Growth inhibition of human HOP62 cells assessed as growth inhibition at 10 uM by sulforhodamine B assay; conditions: read-out: GI
NCI-H23 = test: Growth inhibition of human NCI-H23 cells assessed as cell growth at 10 uM by sulforhodamine B assay; conditions: read-out: Activity
[1] = Growth inhibition of human Hs 578T cells assessed as cell growth at 10 uM by sulforhodamine B assay; conditions: read-out: Activity
HCT-15 = test: Growth inhibition of human HCT15 cells assessed as cell growth at 10 uM by sulforhodamine B assay; conditions: read-out: Activity
U-251 [2] = test: Growth inhibition of human U251 cells assessed as cell growth at 10 uM by sulforhodamine B assay; conditions: read-out: Activity
OVCAR-5 = test: Growth inhibition of human OVCAR5 cells assessed as cell growth at 10 uM by sulforhodamine B assay; conditions: read-out: Activity
SF-539 = test: Growth inhibition of human SF539 cells assessed as growth inhibition at 10 uM by sulforhodamine B assay; conditions: read-out: GI
MCF7 = test: Growth inhibition of human MCF7 cells assessed as cell growth at 10 uM by sulforhodamine B assay; conditions: read-out: Activity
MDA-MB-468 [3] = test: Growth inhibition of human MDA-MB-468 cells assessed as growth inhibition at 10 uM by sulforhodamine B assay; conditions: read-out: GI
UO-31 = test: Growth inhibition of human UO31 cells assessed as growth inhibition at 10 uM by sulforhodamine B assay; conditions: read-out: GI
TK-10 = test: Growth inhibition of human TK10 cells assessed as cell growth at 10 uM by sulforhodamine B assay; conditions: read-out: Activity
COLO 205 = test: Growth inhibition of human COLO205 cells assessed as cell growth at 10 uM by sulforhodamine B assay; conditions: read-out: Activity
BT-549 = test: Growth inhibition of human BT549 cells assessed as cell growth at 10 uM by sulforhodamine B assay; conditions: read-out: Activity
SK-MEL-28 [4] = test: Growth inhibition of human SK-MEL-28 cells assessed as cell growth at 10 uM by sulforhodamine B assay; conditions: read-out: Activity
U-251 [5] = test: Growth inhibition of human U251 cells assessed as growth inhibition at 10 uM by sulforhodamine B assay; conditions: read-out: GI
SN12C [6] = test: Growth inhibition of human SN12C cells assessed as cell growth at 10 uM by sulforhodamine B assay; conditions: read-out: Activity
MDA-MB-468 [7] = test: Growth inhibition of human MDA-MB-468 cells assessed as cell growth at 10 uM by sulforhodamine B assay; conditions: read-out: Activity
SK-MEL-2 = test: Growth inhibition of human SK-MEL-2 cells assessed as cell growth at 10 uM by sulforhodamine B assay; conditions: read-out: Activity
CAKI-1 [8] = test: Growth inhibition of human CAKI-1 cells assessed as growth inhibition at 10 uM by sulforhodamine B assay; conditions: read-out: GI
DU-145 [9] = test: Growth inhibition of human DU145 cells assessed as growth inhibition at 10 uM by sulforhodamine B assay; conditions: read-out: GI
SK-OV-3 [10] = test: Growth inhibition of human SKOV3 cells assessed as cell growth at 10 uM by sulforhodamine B assay; conditions: read-out: Activity
KM12 = test: Growth inhibition of human KM12 cells assessed as growth inhibition at 10 uM by sulforhodamine B assay; conditions: read-out: GI
SF-295 = test: Growth inhibition of human SF295 cells assessed as growth inhibition at 10 uM by sulforhodamine B assay; conditions: read-out: GI
ACHN = test: Growth inhibition of human ACHN cells assessed as growth inhibition at 10 uM by sulforhodamine B assay; conditions: read-out: GI
SNB-19 = test: Growth inhibition of human SNB19 cells assessed as growth inhibition at 10 uM by sulforhodamine B assay; conditions: read-out: GI
MDA-MB-231 = test: Growth inhibition of human MDA-MB-231 cells assessed as growth inhibition at 10 uM by sulforhodamine B assay; conditions: read-out: GI
NCI-H522 [11] = test: Growth inhibition of human NCI-H522 cells assessed as cell growth at 10 uM by sulforhodamine B assay; conditions: read-out: Activity
HCT-116 = test: Growth inhibition of human HCT116 cells assessed as growth inhibition at 10 uM by sulforhodamine B assay; conditions: read-out: GI
SW-620 = test: Growth inhibition of human SW620 cells assessed as cell growth at 10 uM by sulforhodamine B assay; conditions: read-out: Activity
NCI-H522 [12] = test: Growth inhibition of human NCI-H522 cells assessed as growth inhibition at 10 uM by sulforhodamine B assay; conditions: read-out: GI
CAKI-1 [13] = test: Growth inhibition of human CAKI-1 cells assessed as cell growth at 10 uM by sulforhodamine B assay; conditions: read-out: Activity
DU-145 [14] = test: Growth inhibition of human DU145 cells assessed as cell growth at 10 uM by sulforhodamine B assay; conditions: read-out: Activity
SN12C [15] = test: Growth inhibition of human SN12C cells assessed as growth inhibition at 10 uM by sulforhodamine B assay; conditions: read-out: GI
T47D = test: Growth inhibition of human T47D cells assessed as cell growth at 10 uM by sulforhodamine B assay; conditions: read-out: Activity
NCI-H226 = test: Growth inhibition of human NCI-H226 cells assessed as cell growth at 10 uM by sulforhodamine B assay; conditions: read-out: Activity
CCRF-CEM = test: Growth inhibition of human CCRF-CEM cells assessed as cell growth at 10 uM by sulforhodamine B assay; conditions: read-out: Activity
UACC-257 = test: Growth inhibition of human UACC257 cells assessed as cell growth at 10 uM by sulforhodamine B assay; conditions: read-out: Activity
HL-60(TB) = test: Growth inhibition of human HL-60(TB) cells assessed as cell growth at 10 uM by sulforhodamine B assay; conditions: read-out: Activity
786-0 = test: Growth inhibition of human 786-0 cells assessed as growth inhibition at 10 uM by sulforhodamine B assay; conditions: read-out: GI
A498 = test: Growth inhibition of human A498 cells assessed as growth inhibition at 10 uM by sulforhodamine B assay; conditions: read-out: GI
[16] = Growth inhibition of human NCI-ADR-RES cells assessed as growth inhibition at 10 uM by sulforhodamine B assay; conditions: read-out: GI
SK-MEL-28 [17] = test: Growth inhibition of human SK-MEL-28 cells assessed as growth inhibition at 10 uM by sulforhodamine B assay; conditions: read-out: GI
SK-OV-3 [18] = test: Growth inhibition of human SKOV3 cells assessed as growth inhibition at 10 uM by sulforhodamine B assay; conditions: read-out: GI
MDA-MB-435 = test: Growth inhibition of human MDA-MB-435 cells assessed as growth inhibition at 10 uM by sulforhodamine B assay; conditions: read-out: GI
A549 [19] = test: Growth inhibition of human A549/ATCC cells assessed as growth inhibition at 10 uM by sulforhodamine B assay; conditions: read-out: GI
A549 [20] = test: Growth inhibition of human A549/ATCC cells assessed as cell growth at 10 uM by sulforhodamine B assay; conditions: read-out: Activity
MOLT-4 = test: Growth inhibition of human MOLT4 cells assessed as growth inhibition at 10 uM by sulforhodamine B assay; conditions: read-out: GI
SF-268 = test: Growth inhibition of human SF268 cells assessed as growth inhibition at 10 uM by sulforhodamine B assay; conditions: read-out: GI

SMILES: CC1(C)C[C@@H](O)[C@]2(C(=O)O)CC[C@]3(C)C(=CC[C@@H]4[C@@]5(C)CCC(=O)C(C)(C)[C@@H]5CC[C@]43C)[C@@H]2C1
- growth at 10 µM (NCI-H322M): 97.5%
- inhibition of growth at 10 µM (HOP-62): 11.3%
- growth at 10 µM (NCI-H23): 92.3%
- growth at 10 µM [1]: 99.3%
- growth at 10 µM (HCT-15): 75.4%
- growth at 10 µM (U-251 [2]): 89.2%
- growth at 10 µM (OVCAR-5): 108%
- inhibition of growth at 10 µM (SF-539): < 10%
- growth at 10 µM (MCF7): 81.4%
- inhibition of growth at 10 µM (MDA-MB-468 [3]): < 10%
- inhibition of growth at 10 µM (UO-31): 13.9%
- growth at 10 µM (TK-10): 106%
- growth at 10 µM (COLO 205): 101%
- growth at 10 µM (BT-549): 89.9%
- growth at 10 µM (SK-MEL-28 [4]): 98%
- inhibition of growth at 10 µM (U-251 [5]): 10.8%
- growth at 10 µM (SN12C [6]): 83.3%
- growth at 10 µM (MDA-MB-468 [7]): 96.2%
- growth at 10 µM (SK-MEL-2): 96%
- inhibition of growth at 10 µM (CAKI-1 [8]): 15.2%
- inhibition of growth at 10 µM (DU-145 [9]): < 10%
- growth at 10 µM (SK-OV-3 [10]): 102%
- inhibition of growth at 10 µM (KM12): 12.3%
- inhibition of growth at 10 µM (SF-295): 19.3%
- inhibition of growth at 10 µM (ACHN): < 10%
- inhibition of growth at 10 µM (SNB-19): < 10%
- inhibition of growth at 10 µM (MDA-MB-231): < 10%
- growth at 10 µM (NCI-H522 [11]): 80.9%
- inhibition of growth at 10 µM (HCT-116): 21.2%
- growth at 10 µM (SW-620): 104%
- inhibition of growth at 10 µM (NCI-H522 [12]): 19.1%
- growth at 10 µM (CAKI-1 [13]): 84.8%
- growth at 10 µM (DU-145 [14]): 113%
- inhibition of growth at 10 µM (SN12C [15]): 16.6%
- growth at 10 µM (T47D): 80.8%
- growth at 10 µM (NCI-H226): 103%
- growth at 10 µM (CCRF-CEM): 87.5%
- growth at 10 µM (UACC-257): 91.2%
- growth at 10 µM (HL-60(TB)): 75.2%
- inhibition of growth at 10 µM (786-0): 13.8%
- inhibition of growth at 10 µM (A498): < 10%
- inhibition of growth at 10 µM [16]: < 10%
- inhibition of growth at 10 µM (SK-MEL-28 [17]): < 10%
- inhibition of growth at 10 µM (SK-OV-3 [18]): < 10%
- inhibition of growth at 10 µM (MDA-MB-435): < 10%
- inhibition of growth at 10 µM (A549 [19]): 21%
- growth at 10 µM (A549 [20]): 79%
- inhibition of growth at 10 µM (MOLT-4): 21.3%
- inhibition of growth at 10 µM (SF-268): < 10%

SMILES: CC(C)=CC(=O)O[C@@H]1CC(C)(C)C[C@H]2C3=CC[C@@H]4[C@@]5(C)CCC(=O)C(C)(C)[C@@H]5CC[C@@]4(C)[C@]3(C)CC[C@@]12C(=O)O
- growth at 10 µM (NCI-H322M): 54%
- inhibition of growth at 10 µM (HOP-62): 39.8%
- growth at 10 µM (NCI-H23): 53.4%
- growth at 10 µM [1]: 79.6%
- growth at 10 µM (HCT-15): 18.6%
- growth at 10 µM (U-251 [2]): 38.2%
- growth at 10 µM (OVCAR-5): 96.3%
- inhibition of growth at 10 µM (SF-539): 35%
- growth at 10 µM (MCF7): 49.3%
- inhibition of growth at 10 µM (MDA-MB-468 [3]): 35.8%
- inhibition of growth at 10 µM (UO-31): 58%
- growth at 10 µM (TK-10): 78.1%
- growth at 10 µM (COLO 205): 71%
- growth at 10 µM (BT-549): 69.6%
- growth at 10 µM (SK-MEL-28 [4]): 91.2%
- inhibition of growth at 10 µM (U-251 [5]): 61.8%
- growth at 10 µM (SN12C [6]): 42.6%
- growth at 10 µM (MDA-MB-468 [7]): 64.2%
- growth at 10 µM (SK-MEL-2): 78.2%
- inhibition of growth at 10 µM (CAKI-1 [8]): 53.2%
- inhibition of growth at 10 µM (DU-145 [9]): 25.6%
- growth at 10 µM (SK-OV-3 [10]): 95.4%
- inhibition of growth at 10 µM (KM12): 69.6%
- inhibition of growth at 10 µM (ACHN): 56.1%
- inhibition of growth at 10 µM (SNB-19): 42.7%
- inhibition of growth at 10 µM (MDA-MB-231): 28.5%
- growth at 10 µM (NCI-H522 [11]): 57.3%
- inhibition of growth at 10 µM (HCT-116): 73.4%
- growth at 10 µM (SW-620): 62.7%
- inhibition of growth at 10 µM (NCI-H522 [12]): 42.7%
- growth at 10 µM (CAKI-1 [13]): 46.8%
- growth at 10 µM (DU-145 [14]): 74.5%
- inhibition of growth at 10 µM (SN12C [15]): 57.4%
- growth at 10 µM (T47D): 61.6%
- growth at 10 µM (NCI-H226): 78.2%
- growth at 10 µM (CCRF-CEM): 25.3%
- growth at 10 µM (UACC-257): 73.9%
- growth at 10 µM (HL-60(TB)): 10.2%
- inhibition of growth at 10 µM (786-0): 55.9%
- inhibition of growth at 10 µM (A498): < 10%
- inhibition of growth at 10 µM [16]: 40%
- inhibition of growth at 10 µM (SK-MEL-28 [17]): < 10%
- inhibition of growth at 10 µM (SK-OV-3 [18]): < 10%
- inhibition of growth at 10 µM (MDA-MB-435): 10.4%
- inhibition of growth at 10 µM (A549 [19]): 77.8%
- growth at 10 µM (A549 [20]): 22.2%
- inhibition of growth at 10 µM (MOLT-4): 63.5%
- inhibition of growth at 10 µM (SF-268): 27%
